In one assay the test system is canine arthritis. In words: clinical trial on canine arthritis. On the set-up: key: +++: very good response, total recovery; ++: good response, functionability recovery; +: moderate response, improvement; -: negative response or no apparent improvement. The settings on record: 2 mg/kg day orally, 15 days. The assay is classed as in vivo, dog. How it is done:
After the diagnosis, each animal was treated with Bobel capsules during 45 days, with a follow up every 15 days. Blood, synovial liquid and urine samples were taken at the beginning and at the end of the treatment in order to perform the following tests: Synovial liquid analysis (cytology, cytokines 1,6,8 and TNF); LTB4; LTC4; PGE2; hematic count and leukocyte content; standard serum biochemistry; urine sediment; Rose-Wealer test; and radiology control. The methodology for clinical validation involved applying evaluating uniform parameters and classifying the results according to the following notations: (+++)=very good response, total recovery; (++)=good response, functionability recovery; (+)=moderate response, improvement; (-)=negative response or no apparent improvement.
After the diagnosis each animal was treated with capsules of Bobel-24 during 15 days. Blood, synovial liquid and urine samples were taken at the beginning and at the end of the treatment in order to perform the same tests as in example 13, using the same notation for the clinical evolution.

Another assay has as its system cyclooxygenase. The settings on record: in words; cited from earlier work.
In another assay the test system is herpes simplex. The assay can be described thus: in vivo activity in patients with herpes simplex. On the set-up: species or system human (patients). As to conditions: 15 mg/day intramuscularly, a month. The source says: The 2,4-disubstituted phenol derivatives of the present invention are anti-herpetic agents in vivo, since they eliminate the symptoms of patients suffering from different types of herpes simplex (genital herpes, herpes of mouth and lips, recurrent herpes), and of patients suffering from herpes zoster. There is no relapse after leaving the treatment. The products are active both intramuscularly and topically, the first via being preferred.
A total of 25 patients with symptoms of different herpes simplex (genital, buccal or reincident) were treated with 15 mg/day of Bobel-24, intramuscularly, during a month, with the following results: with the ten patients of genital herpes simplex, the results was excellent in 7 cases, good in 2 and regular in 1; of the twelve with buccal herpes simplex it was excellent in 9 cases, good in 2 and regular in 1; of the 3 with reincident herpes it was excellent in 2 of the cases and good in 1. […] The case of genital herpes which resulted "regular" was an obese and diabetic […], and although there was an improvement there was also reincidency. Independently an test for antiviral activity in vitro resulted negative.

The test system of assay [1] is chronic intestinal pathology, chronic lymphoplasmocitary enteritis and hemorrhagic cholitis. In words: treatment of dogs with gastrointestinal diseases. The assay is classed as in vivo, dog. As to conditions: ten dogs, 1-2 mg/kg.day. On the procedure: A total of ten dogs diagnosed chronic intestinal pathology, chronic lymphoplasmocitary enteritis (diagnosed through a biopsy and more than a year of evolution) and hemorrhagic cholitis, were treated with doses of 1-2 mg/kg.day of Bobel-24.

In assay [2] the test system is canine seborrheic dermatitis. In words: clinical trial on canine seborrheic dermatitis. The assay is classed as in vivo, dog. Further details: key: +++: very good response, clinically cured; ++: good response, marked lowering in the clinical signs; +: moderate response, improvement; -: negative response or no apparent improvement. The settings on record: weekly bath 2% shampoo, 15 days. On the procedure: The animals had been diagnosed to suffer from seborrheic dermatitis, and the diagnosis was confirmed by a biopsy. The treatment consisted of a weekly bath with a 2% Bobel-24 shampoo and evaluation of the treatment after 15 days. The efficiency of the treatment was analyzed evaluating the following therapeutic symptoms; removal of scabs and scales, greasiness reduction, sheborrheic odor reduction, relieve of the pruritus, and antiinflammatory effect. […] In view of the results the following conclusions were reached: […]

The structures appear in SMILES notation.

With `Oc1c(I)cc(I)cc1I` [Bobel-24, 2,4,6-triiodophenol], the “Evolution, knee instability” value in the assay with canine arthritis (German shepherd 2 years) was “++”. In addition, the “Evolution, osteochondritis” value with canine arthritis (Mongrel 1 year) was “+++”. Further, the “Evolution, arthritis” value in the assay on canine arthritis (b340 Mongrel 8, b342 German shepherd 6, b343 Rottwailer 1, b347 Mongrel 7 years) is listed as “+++”. Further, in the assay with cyclooxygenase, the cyclooxygenase inhibiting activity result is “some cyclooxygenase inhibiting activity”. Besides, in the assay with herpes simplex (25 patients), the “disappearance of the symptoms, herpes simplex overall” value is “clear and generalized disappearance of the symptoms”. In the assay on herpes simplex (of 3 patients), the “cases with excellent result, reincident herpes” value is 2 cases and the “cases with good result, reincident herpes” value was found to be 1 cases. In the assay with herpes simplex (of ten patients), the “cases with excellent result, genital herpes simplex” value is 7 cases and the “cases with good result, genital herpes simplex” value is 2 cases. The “cases with regular result, genital herpes simplex” value with herpes simplex (of ten patients, obese and diabetic patient, reincidency) was found to be 1 cases. Besides, in the assay with herpes simplex (of twelve patients), the “cases with excellent result, buccal herpes simplex” value was 9 cases; the “cases with good result, buccal herpes simplex” value is 2 cases; the “cases with regular result, buccal herpes simplex” value is reported as 1 cases. Besides, the response result in assay [1] is “responded very positively in a short time (1-2 weeks)”. Further, in assay [2] (b363 Poodle 6, b364 Mongrel 14, b374 Mongrel 10, b376 Belgian shepherd 10, b382 Poodle 9, b392 Mongrel 5 years), the “Evolution, etiology allergic” value was “++”. For the same compound, the “Evolution, etiology leishmania” value in assay [2] (b369 German shepherd 10, b377 Pekinese 11, b379 German shepherd 3 years) is recorded as “++”.

Values taken from patent publication US5985937A, “Use of 2,4-distributed phenol derivatives as 5-lipoxygenase inhibitors” (priority 1994, dated 1999).
